Test results published in ChEMBL document CHEMBL1132853, “Design and synthesis of highly potent fumagillin analogues from homology modeling for a human MetAP-2” (Bioorg Med Chem Lett, 2000).
Values after ≈ are worked out from the molar mass of the structure shown.

Assays:
EL4 = assay: Tested in vitro for its ability to inhibit cell proliferation of lymphoma EL-4 cells measured […] by MTT method; type: functional, cell-based, Mus musculus
CPAE = assay: Tested in vitro for its ability to inhibit cell proliferation of calf pulmonary artery endothelial cells measured […] by SRB method; type: functional, cell-based, Bos taurus
P388 = assay: Tested in vitro for its ability to inhibit cell proliferation of murine leukemia P388D1 cells measured […] by MTT method; type: functional, cell-based; settings: Mus musculus
[1] = Mus musculus, EL4, read-out: IC50
[2] = Bos taurus, CPAE, Artery, read-out: IC50

With C/C=C/C=C/C(=O)O[C@@H]1CC[C@]2(CO2)[C@@H]([C@@]2(C)O[C@@H]2CC=C(C)C)[C@@H]1OC the IC50 (EL4; [1]) was 5.05 ng/mL (≈ 13.4 nM), the IC50 (CPAE; [2]) was 12 ng/mL (≈ 31.9 nM) and the IC50 (P388) was > 1 ng/mL.

COc1ccc(/C=C\C(=O)O[C@@H]2CC[C@]3(CO3)[C@@H]([C@@]3(C)O[C@@H]3CC=C(C)C)[C@@H]2OC)cc1 showed an IC50 (EL4; [1]) of 12 ng/mL (≈ 27.1 nM) and an IC50 (CPAE; [2]) of 24 ng/mL (≈ 54.2 nM).

With CO[C@@H]1[C@H](OC(=S)SCc2ccccc2)CC[C@]2(CO2)[C@H]1[C@@]1(C)O[C@@H]1CC=C(C)C the IC50 (EL4; [1]) was 14 ng/mL (≈ 31.2 nM) and the IC50 (CPAE; [2]) was 42 ng/mL (≈ 93.6 nM).

With CO[C@@H]1[C@H](OC(=O)NCc2ccccc2)CC[C@]2(CO2)[C@H]1[C@@]1(C)O[C@@H]1CC=C(C)C the IC50 (EL4; [1]) was 0.01 ng/mL (≈ 0.0241 nM), the IC50 (CPAE; [2]) was 0.07 ng/mL (≈ 0.168 nM) and the IC50 (P388) was > 1 ng/mL.

COc1cc(CCC(=O)O[C@@H]2CC[C@]3(CO3)[C@@H]([C@@]3(C)O[C@@H]3CC=C(C)C)[C@@H]2OC)cc(OC)c1OC gave an IC50 (EL4; [1]) of 36 ng/mL (≈ 71.3 nM) and an IC50 (CPAE; [2]) of 44 ng/mL (≈ 87.2 nM).

In the case of COc1ccc(/C=C/C(=O)O[C@@H]2CC[C@]3(CO3)[C@@H]([C@@]3(C)O[C@@H]3CC=C(C)C)[C@@H]2OC)cc1, the IC50 (EL4; el4) was 0.00019 ng/mL (≈ 0.000429 nM), the IC50 (CPAE; cpae) was 0.00006 ng/mL (≈ 0.000136 nM) and the IC50 (P388) was > 1 ng/mL.

COc1cc(/C=C/C(=O)O[C@@H]2CC[C@]3(CO3)[C@@H]([C@@]3(C)O[C@@H]3CC=C(C)C)[C@@H]2OC)cc(OC)c1OC was tested, and the IC50 (EL4; el4) was 0.00015 ng/mL (≈ 0.000298 nM), the IC50 (CPAE; cpae) was 0.00003 ng/mL (≈ 5.97e-05 nM) and the IC50 (P388) was > 1 ng/mL.

With CO[C@@H]1[C@H](OC(=O)NCc2ccc(C(F)(F)F)cc2)CC[C@]2(CO2)[C@H]1[C@@]1(C)O[C@@H]1CC=C(C)C the IC50 (EL4; [1]) was 0.014 ng/mL (≈ 0.029 nM), the IC50 (CPAE; [2]) was 0.0054 ng/mL (≈ 0.0112 nM) and the IC50 (P388) was > 1 ng/mL.

For COc1ccc(CCOC(=O)O[C@@H]2CC[C@]3(CO3)[C@@H]([C@@]3(C)O[C@@H]3CC=C(C)C)[C@@H]2OC)cc1, the IC50 (EL4; [1]) was 153 ng/mL (≈ 332 nM) and the IC50 (CPAE; [2]) was 2.3 ng/mL (≈ 4.99 nM).

COc1ccc(CNC(=O)O[C@@H]2CC[C@]3(CO3)[C@@H]([C@@]3(C)O[C@@H]3CC=C(C)C)[C@@H]2OC)cc1 was tested, and the IC50 (EL4; [1]) was 0.042 ng/mL (≈ 0.0943 nM), the IC50 (CPAE; [2]) was 0.044 ng/mL (≈ 0.0988 nM) and the IC50 (P388) was > 1 ng/mL.

In the case of CO[C@@H]1[C@H](OC(=O)/C=C/C=C/C=C/C=C/C(=O)O)CC[C@]2(CO2)[C@H]1[C@@]1(C)O[C@@H]1CC=C(C)C [FUMAGILLIN], the IC50 (EL4; [1]) was 0.42 ng/mL (≈ 0.916 nM), the IC50 (CPAE; [2]) was 0.37 ng/mL (≈ 0.807 nM) and the IC50 (P388) was > 1 ng/mL.

In the case of CO[C@@H]1[C@H](OC(=O)OCc2ccc([N+](=O)[O-])cc2)CC[C@]2(CO2)[C@H]1[C@@]1(C)O[C@@H]1CC=C(C)C, the IC50 (EL4; [1]) was 2.47 ng/mL (≈ 5.35 nM), the IC50 (CPAE; [2]) was 0.11 ng/mL (≈ 0.238 nM) and the IC50 (P388) was > 1 ng/mL.

COc1ccc(CCCC(=O)O[C@@H]2CC[C@]3(CO3)[C@@H]([C@@]3(C)O[C@@H]3CC=C(C)C)[C@@H]2OC)cc1 showed an IC50 (EL4; [1]) of 83 ng/mL (≈ 181 nM) and an IC50 (CPAE; [2]) of 125 ng/mL (≈ 273 nM).

In the case of CO[C@@H]1[C@H](OC(=O)NC(=O)CCl)CC[C@]2(CO2)[C@H]1[C@@]1(C)O[C@@H]1CC=C(C)C [O-CHLOROACETYLCARBAMOYLFUMAGILLOL], the IC50 (EL4; [1]) was 0.03 ng/mL (≈ 0.0746 nM), the IC50 (CPAE; [2]) was 0.04 ng/mL (≈ 0.0995 nM) and the IC50 (P388) was > 10 ng/mL.

With CO[C@@H]1[C@H](OC(=O)/C=C/c2ccccc2)CC[C@]2(CO2)[C@H]1[C@@]1(C)O[C@@H]1CC=C(C)C the IC50 (EL4; [1]) was 0.05 ng/mL (≈ 0.121 nM), the IC50 (CPAE; [2]) was 0.046 ng/mL (≈ 0.112 nM) and the IC50 (P388) was > 1 ng/mL.

With CO[C@@H]1[C@H](O)CC[C@]2(CO2)[C@H]1[C@@]1(C)O[C@@H]1CC=C(C)C the IC50 (EL4; [1]) was 5.16 ng/mL (≈ 18.3 nM), the IC50 (CPAE; [2]) was 15 ng/mL (≈ 53.1 nM) and the IC50 (P388) was > 10 ng/mL.

For COc1ccc(CCNC(=O)O[C@@H]2CC[C@]3(CO3)[C@@H]([C@@]3(C)O[C@@H]3CC=C(C)C)[C@@H]2OC)cc1OC, the IC50 (EL4; [1]) was 0.042 ng/mL (≈ 0.0858 nM), the IC50 (CPAE; [2]) was 0.044 ng/mL (≈ 0.0899 nM) and the IC50 (P388) was > 1 ng/mL.

COc1ccc(COC(=O)O[C@@H]2CC[C@]3(CO3)[C@@H]([C@@]3(C)O[C@@H]3CC=C(C)C)[C@@H]2OC)cc1 showed an IC50 (EL4; [1]) of 42 ng/mL (≈ 94.1 nM) and an IC50 (CPAE; [2]) of 18 ng/mL (≈ 40.3 nM).
